Earlier results as cited in article PMC4052326, “Alterporriol-Type Dimers from the Mangrove Endophytic Fungus, Alternaria sp. (SK11), and Their MptpB Inhibitions” (Marine Drugs, 2014).

Test system: clinical multidrug-resistant M. tuberculosis strains
Conditions: result in words; cited from earlier work

Q: With 4-deoxybostrycin as the substance, how does the “inhibition against some clinical multidrug-resistant M. tuberculosis strains” value read?
A: The value was “good inhibition”.
